Source: PMC9502466, “Identification of SARS-CoV-2 Main Protease Inhibitors from a Library of Minor Cannabinoids by Biochemical Inhibition Assay and Surface Plasmon Resonance Characterized Binding Affinity” (Molecules, 2022)
Several values for one entry are separate records, joined by “and”; a condition that tells them apart may be missing. Identical values can stand only once. Like-named read-outs stand apart in the source and are kept apart here.

Assays:
SARS-CoV-2 M^pro [1] = target: T1, SARS-CoV-2 M^pro (Severe acute respiratory syndrome coronavirus 2, UniProt P0DTD1); experiment: biochemical; conditions: for inhibition at 10 µM: read-out: inhibition rate of SARS-CoV-2 M^pro activity, 10 μM
[2] = system: pseudovirus expressing the SARS-CoV-2 spike protein; conditions: cited from earlier work
SARS-CoV-2 M^pro [3] = target: T1, SARS-CoV-2 M^pro; parameters: method as in PMID 33290767; conditions: in vitro, cited from earlier work

With “11-nor-Δ^8-tetrahydrocannabinol-9-Carboxylic acid [11-OH-THC]” the “inhibition rate of SARS-CoV-2 M^pro activity” value (“inhibition rate” below) (SARS-CoV-2 M^pro [1]; 10 µM) was 56.0%.
In the case of C=C(C)[C@@H]1C[C@H](O)C(C)=C[C@H]1c1c(O)cc(CCCCC)cc1O [6α-OH-CBD, 6α-hydroxy cannabidiol], the inhibition at 10 µM (SARS-CoV-2 M^pro [1]) is reported as 14.7%.
CCCCCc1cc(O)c2c(c1)OC(C)(CCC=C(C)C)C=C2 (centres unmarked) [CBC, cannabichromene] showed an inhibition at 10 µM (SARS-CoV-2 M^pro [1]) of 42.1%.
In the case of CCCCCc1cc2c(c(O)c1C(=O)O)C=CC(C)(CCC=C(C)C)O2 (centres unmarked) [CBCA, cannabichromenic acid], the inhibition at 10 µM (SARS-CoV-2 M^pro [1]) is reported as less than 10%.
CCCc1cc2c(c(O)c1C(=O)O)C=CC(C)(CCC=C(C)C)O2 (centres unmarked) [CBCVA, cannabichromevarinic acid] showed an inhibition at 10 µM (SARS-CoV-2 M^pro [1]) of less than 10%.
C=C(C)[C@@H]1CCC(C)=C[C@H]1c1c(O)cc(CCCCC)cc1O [CBD, cannabidiol, reference compound] gave an inhibition at 50 µM (SARS-CoV-2 M^pro [1]) of 13.2%, an inhibition at 250 µM (SARS-CoV-2 M^pro [1]) of 23% and an inhibition at 10 µM (SARS-CoV-2 M^pro [1]) of 8.74%.
With C=C(C)[C@@H]1CCC(C)=C[C@H]1c1c(O)cc(CCCCC)c(C(=O)O)c1O [CBDA, cannabidiolic acid] the inhibition at 2 µM (SARS-CoV-2 M^pro [1]; 2 μM) was 11.9%, the inhibition at 50 µM (SARS-CoV-2 M^pro [1]) was 84.8% and the inhibition at 250 µM (SARS-CoV-2 M^pro [1]) was 101%. The inhibition at 10 µM (SARS-CoV-2 M^pro [1]) was 29.4% and the “effect on pseudovirus infection (in words)” value [2] was “block the infection”.
Compound C=C(C)[C@@H]1CCC(C)=C[C@H]1c1c(O)cc(CCCCC)c(C(=O)OC)c1O [CBDAME, cannabidiolic acid methyl ester] has an inhibition at 10 µM (SARS-CoV-2 M^pro [1]) of 13.7%.
C=C(C)[C@@H]1CCC(C)=C[C@H]1c1c(O)cc(CCCC)cc1O [CBDB, cannabidibutol] gave an inhibition at 10 µM (SARS-CoV-2 M^pro [1]) of 19.4%.
Work on C=C(C)[C@@H]1CCC(C)=C[C@H]1c1c(O)cc(CCCCCCC)cc1O [CBDP, cannabidiphorol] yielded an inhibition at 10 µM (SARS-CoV-2 M^pro [1]) of 6.55%.
Work on C=C(C)[C@@H]1CCC(C)=C[C@H]1c1c(O)cc(CCC)cc1O [CBDV, cannabidivarin] yielded an inhibition at 10 µM (SARS-CoV-2 M^pro [1]) of 6.87%.
In the case of CCCCCc1cc(O)c(C/C=C(\C)CCC=C(C)C)c(O)c1 [CBG, cannabigerol], the inhibition at 10 µM (SARS-CoV-2 M^pro [1]) is reported as 25.4%.
For CCCCCc1cc(O)c(C/C=C(\C)CCC=C(C)C)c(O)c1C(=O)O [CBGA, cannabigerolic acid], the “inhibition rate” value (SARS-CoV-2 M^pro [1]; 10 μM) was greater than 70%, the inhibition at 12.5 µM (SARS-CoV-2 M^pro [1]; 12.5 μM) was 6% and the inhibition at 25 µM (SARS-CoV-2 M^pro [1]; 25 μM) was 8%. It also gave an inhibition at 50 µM (SARS-CoV-2 M^pro [1]) of 18.5%, an inhibition at 100 µM (SARS-CoV-2 M^pro [1]; 100 μM) of 18.2% and an inhibition at 250 µM (SARS-CoV-2 M^pro [1]) of 72.9%. The IC50 (SARS-CoV-2 M^pro [1]) was 14.4 µM and 20.7 µM, the inhibition at 10 µM (SARS-CoV-2 M^pro [1]) was 72.9% and the “effect on pseudovirus infection (in words)” value [2] was “block the infection”.
For CCCCCc1cc(O)c2c(c1)OC1(C)CCC3C1C2C3(C)C (centres unmarked) [CBL, cannabicyclol], the inhibition at 10 µM (SARS-CoV-2 M^pro [1]) was 31.1%.
For CCCCCc1cc(O)c2c(c1)OC(C)(C)c1ccc(C)cc1-2 [CBN, cannabinol], the inhibition at 10 µM (SARS-CoV-2 M^pro [1]) is listed as 28.7% and the IC50 (SARS-CoV-2 M^pro [3]) is listed as 7.91 µM.
C=C(C)c1ccc(C)cc1-c1c(O)cc(CCCCC)cc1O [CBND, cannabinodiol] showed an inhibition at 10 µM (SARS-CoV-2 M^pro [1]) of less than 10%.
For CCCCCc1cc2c3c(c1)OC(C)(C)C1CCC(C)(CC31)O2 (centres unmarked) [CBT, cannabicitran], the inhibition at 10 µM (SARS-CoV-2 M^pro [1]) was less than 10%.
In the case of O=C[C@H](C[C@@H]1CCNC1=O)NC(=O)[C@H](Cc1cccc(F)c1)NC(=O)c1cc2ccccc2[nH]1 [M^pro 11b, reference compound], the “inhibition rate” value (SARS-CoV-2 M^pro [1]; 10 µM) is reported as greater than 98%.
With Cc1cc(C(=O)N[C@@H](C)C(=O)N[C@H](C(=O)N[C@@H](CC(C)C)C(=O)N[C@H](/C=C/C(=O)OCc2ccccc2)C[C@@H]2CCNC2=O)C(C)C)no1 [M^pro N3, reference compound] the “inhibition rate” value (SARS-CoV-2 M^pro [1]; 10 µM) was greater than 98%.
In the case of CCCCc1cc(O)c2c(c1)OC(C)(C)[C@@H]1CCC(C)=C[C@@H]21 [THCB, Δ^9-tetrahydrocannabibutol], the “inhibition rate” value (SARS-CoV-2 M^pro [1]; 10 μM) is reported as greater than 70%, the IC50 (SARS-CoV-2 M^pro [1]) is reported as 3.62 µM and the inhibition at 10 µM (SARS-CoV-2 M^pro [1]) is reported as 81%.
In the case of CCCCCc1cc(O)c2c(c1)OC(C)(C)[C@@H]1CCC(C)=C[C@@H]21 [Δ^9-THC, Δ^9-tetrahydrocannabinol, reference compound], the IC50 (SARS-CoV-2 M^pro [3]; read-out: IC50) is listed as 10.2 µM.
